Experimental data from publication PMC3538380 (Stem cells (Dayton, Ohio), 2013).

Experiments:
[1] = biological target: purified GAPDH enzyme from rabbit muscle (Oryctolagus cuniculus, UniProt P46406); experiment: GAPDH enzymatic assay, NADH fluorescence; type: biochemical
GAPDH in GSC11 cells = GAPDH in GSC11 cells (Homo sapiens, UniProt P04406); experiment: GAPDH activity in lysate of treated cells, NADH fluorescence; type: cell-based
Sequence of GAPDH in GSC11 cells (P04406 2-335): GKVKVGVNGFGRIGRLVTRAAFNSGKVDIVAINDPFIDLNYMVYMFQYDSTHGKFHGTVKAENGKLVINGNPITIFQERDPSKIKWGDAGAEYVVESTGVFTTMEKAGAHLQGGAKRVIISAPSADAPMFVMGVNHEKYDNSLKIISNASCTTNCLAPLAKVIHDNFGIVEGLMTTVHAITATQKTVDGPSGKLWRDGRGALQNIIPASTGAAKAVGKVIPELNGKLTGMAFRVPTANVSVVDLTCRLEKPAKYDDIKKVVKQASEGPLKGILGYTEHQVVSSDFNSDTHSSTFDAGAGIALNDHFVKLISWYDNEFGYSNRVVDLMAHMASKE

Sequence of purified GAPDH enzyme from rabbit muscle (P46406 whole entry): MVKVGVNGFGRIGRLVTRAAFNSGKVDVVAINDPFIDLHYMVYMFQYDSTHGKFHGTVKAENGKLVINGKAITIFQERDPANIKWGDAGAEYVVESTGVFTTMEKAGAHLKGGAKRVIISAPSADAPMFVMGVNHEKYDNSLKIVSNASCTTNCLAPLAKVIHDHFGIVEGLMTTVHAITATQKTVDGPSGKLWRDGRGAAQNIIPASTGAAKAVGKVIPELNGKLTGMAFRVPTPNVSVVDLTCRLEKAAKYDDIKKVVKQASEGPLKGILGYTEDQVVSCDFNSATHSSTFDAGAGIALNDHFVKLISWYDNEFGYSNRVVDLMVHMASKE

inhibition at 10 µM (GAPDH in GSC11 cells; read-out: % inhibition at 10 μM)	Structure (SMILES)	IC50 [1]	inhibition at 200 µM (GAPDH in GSC11 cells; read-out: % inhibition at 200 μM)
~60%	CCCOC(=O)C(=O)CBr [3-BrOP, 3-bromo-2-oxopropionate-1-propyl ester]	~10 µM	–
–	O=NN(CCCl)C(=O)NCCCl [BCNU]	~200 µM	~60%
